# A melting point compilation (Tetko et al.; mined from patent text by program, amines drawn as free bases though some values may be those of a salt)
row,melting point,SMILES
1,116 to 117 °C,COc1ccc(-c2cc(=O)n(Cc3ccccn3)nc2-c2ccc(OC)cc2)cc1
2,165 °C,COc1ccc(Nc2nc(Cl)nc(Cl)n2)cc1Cl
3,160 to 162 °C,COc1ccc(S(=O)(=O)C2(CCCC#Cc3ccc(Cl)cc3)CC(=O)NC2=O)cc1 (stereo unspecified)
4,145 to 147 °C,Cc1ccc(C=C(C#N)S(=O)(=O)c2ccccc2)cc1
5,164 to 165 °C,COc1ccc2c(c1)NC(=O)c1ccccc1O2
6,189 to 191 °C,COc1cc2c(c3c1OC(C)(C)C3)C(c1cccc(NC(=O)C(C)(C)CCl)c1)=NC(C)(C)C2
7,168 °C,OC1CN(C(=S)Nc2ccccc2)Cc2sccc21 (stereo unspecified)
8,208 to 209 °C,COc1cc2c(c3ccccc13)N(C(C)=O)c1ccccc1S2
9,165 °C,Nc1nc2ccccc2c2c1nc(CCC1CCCC1)n2CCOc1ccccc1
10,207 to 209 °C,O=[N+]([O-])c1cc([N+](=O)[O-])c2[nH]c(C(F)(F)F)nc2c1N1CCCCC1
11,138 to 140 °C,O=C(Oc1ccccc1)N1Cc2ccccc2C2(Cc3ccc(Cl)cc3O2)C1 (stereo unspecified)
12,104 to 106 °C,COCCCNC(=O)c1cc(Br)c(OCc2ccccc2)cc1OCc1ccccc1
13,235 to 236 °C,N#Cc1cc(C(=O)O)c2c(c1)C(C(=O)O)CCN2 (stereo unspecified)
14,88 to 90 °C,CCCCCCCCCCCCOC(=O)NCCC(=O)O
15,118 to 119 °C,O=C(NCCO)c1cccc(-c2cccc3cc(OCc4cccc(C(F)(F)F)c4)nn23)c1
16,> 300 °C,Cc1nc(NC(=O)Nc2ccccc2)sc1C(=O)NCc1ccccc1
17,239 to 241 °C,CS(=O)(=O)c1ccc(-c2cnn(CC(=O)c3ccc(C(=O)O)cc3)c(=O)c2-c2ccc(F)cc2)cc1
18,248 to 250 °C,Cc1ccc2[nH]c(C)c(C(=O)c3ccc(Cl)c(S(N)(=O)=O)c3)c2c1
19,200 to 201 °C,COC(=O)NC(=N)c1ccc(-n2nc(C)n(-c3ccc(CCC(=O)OCC(C)C)cc3)c2=O)cc1

row,melting point,SMILES
1,192 to 194 °C,CC(C)Oc1ccc(OC(=O)c2ccc(C(=O)Oc3ccc(OC(C)C)cc3)cc2)cc1
2,146 to 148 °C,COc1ccc(SC2=C(C(=O)O)CCC2=CCCc2ccccc2)cc1OC
3,85 to 88 °C,O=C(OC1CCCCCCC1)n1c(-c2cscn2)nc2ccccc21
4,291 °C,CC1(C)C(=CC=C2C(=O)c3ccccc3C2=C(C#N)C#N)N2CCCc3cccc1c32
5,91 to 93 °C,CCCOc1ccc(CSc2nc(SC)n(CC)c(=O)c2C)cc1
6,167 to 170 °C,O=C1N/C(=C\C2CC2)C(O)=C1c1ccccc1
7,131 to 133 °C,NC(=O)N(O)CCCCNC(=O)c1cccc(Oc2ccccc2)c1
8,181 °C,OC1CSC(Oc2ccc(-c3cccnc3F)nc2)C(O)C1O (stereo unspecified)
9,92 to 93 °C,CC(=O)OC1C(N2CCCC2=O)c2sccc2OC1(C)C (stereo unspecified)
10,196 to 198 °C,Nc1ccc(-n2cnnc2)cc1C(F)(F)F
11,160 to 161 °C,O=S(=O)(Nc1nccnc1OCc1ccc(CO)cc1)c1cccc(Cl)c1Cl
12,104 to 106 °C,COc1cncnc1N1CCN(CCCc2c[nH]c3ccc(-c4c(NC(C)C)c(=O)c4=O)cc23)CC1
13,82 to 83 °C,C#CC1(Oc2ccc(F)cc2[N+](=O)[O-])CCN(C(=O)Oc2ccccc2)CC1
14,106 °C,CCCCNC(=O)c1ccc(F)c2c1CC(N(CCCc1c[nH]c3ccc(F)cc13)C1CCC1)CO2 (stereo unspecified)
15,230 to 234 °C,OC1Oc2ccccc2-n2cnc(-c3noc(C4CC4)n3)c21 (stereo unspecified)
16,291 to 292 °C,Cc1sc2[nH]c(=O)n(Cc3ccc(Cl)cc3)c(=O)c2c1C
17,112 to 113 °C,Cc1oc(-c2ccco2)nc1COc1ccc(CON=C(CCCCC(=O)O)c2ccccc2)cc1
18,287 °C,COc1ccc(C(=O)Nc2c(Cl)cncc2Cl)c2c1OCC2CC(=O)NCc1ccc(F)cc1 (stereo unspecified)
19,152 to 155 °C,COc1cc(-c2csc(NS(=O)(=O)c3ccccc3)n2)ccc1OCc1ccccc1

# Second part, the compound before the results:
row,SMILES,melting point
1,Nc1nc(Cl)nc2c1ncn2C1OC(COC2CC2)C(O)C1O (stereo unspecified),122 to 124 °C
2,CCCCOC(=O)c1c(CN2CCCCC2)nc2cc(OC)c(OC)cc2c1-c1ccc(OC)c(OC)c1,154 to 155 °C
3,NS(=O)(=O)c1ccc(-c2[nH]c3ccccc3c2-c2ccc(F)cc2)cc1,228 to 230 °C
4,Sc1nc2ccccc2c2nc(-c3ccoc3)nn12,290 to 292 °C
5,CC(C)N(CCN1C(=O)C(=O)c2ccccc21)C1CCCCC1,103 to 106 °C
6,Cc1cc(-c2ccc(C#N)cc2)c(C#N)n1Cc1cnc(Cl)c(CO)c1,184 °C
7,CCOC(=O)c1cnc2cc(NC(C)=O)ccc2c1O,295 to 300 °C
8,CCOC(=O)CCCn1c(C(=O)C2CCN(CCC3(c4ccc(Cl)c(Cl)c4)CCN(C(=O)c4cc(OC)c(OC)c(OC)c4)C3)CC2)nc2ccccc21 (stereo unspecified),58 to 65 °C
9,COc1ccc(C(=O)Nc2c[nH]nc2C(=O)NCCC#N)cc1,199 to 200 °C
10,CC[C@H](C)[C@H](NC(=O)NCc1ccccc1)C(=O)N[C@H](CO)Cc1c[nH]c2ccccc12,132 to 133 °C
11,COc1cccc(C(=O)Nc2ccc(S(N)(=O)=O)cc2)c1SSc1c(OC)cccc1C(=O)Nc1ccc(S(N)(=O)=O)cc1,188 to 189 °C
12,C[C@H](NC(=O)OC(C)(C)C)C(=O)OCC(C)(C)Nc1cccc2c1C(=O)c1ccccc1C2=O,120 °C
13,OC1Cc2ccccc2C1N1CCCCC1 (stereo unspecified),82 °C
14,COC(=O)c1cnc(C(=O)OC)c(Cl)c1,36 to 38 °C
15,CCNC(=O)c1ccc(N2CCN(Cc3cc4c(c(OCC)c3)OC(C)C(=O)N4)CC2)c(C)c1 (stereo unspecified),200 °C
16,CCc1nn(CCNC(=O)COC)c(CC)c1Oc1cc(Cl)cc(Cl)c1,75 to 76 °C
17,O=CNCC1c2cccc3c2N(CC3)c2ccccc2N1C=O (stereo unspecified),201 to 202 °C
18,CSc1ccc(C2=C(c3ccccc3)C(=O)OC2)cc1F,159 to 160 °C
19,CCCCCCN1CCC[C@H](NCc2ccccc2OC)[C@@H]1c1ccccc1 (relative stereo),48 to 50 °C
20,Cc1ccc(C)n1-c1cc2[nH]c(=O)c(=O)n(CC(=O)O)c2cc1Cl,> 265 °C

row,SMILES,melting point
1,Nc1ccc(NNC=O)cc1,122 to 125 °C
2,COC(=O)c1ccc2nc(C)n(Cc3ccc(Cl)cc3OC)c2n1,166 to 168 °C
3,COC=C(C(=O)OC)c1csc2ccc(C=O)cc12,134 to 135 °C
4,COc1ccc(N2CCN(C)CC2)cc1-c1cn[nH]c1N,174 to 178 °C
5,Cc1c(Br)c2c(c(C)c1NC(=O)OC(C)(C)C)CC(C)(C)O2,115 to 117 °C
6,OC(CN1CCN(Cc2ccccc2)CC1)Cn1c2ccc(Br)cc2c2cc(Br)ccc21 (stereo unspecified),70 to 75 °C
7,COc1ccc(C)nc1Cn1c(NCCCN2CCOCC2)nc2ccc(CNc3cc(C)ccc3CCCO)cc21,132 °C
8,COC(=O)C1OC2(CCC3(CC2)OC(C(=O)OC)C(C(=O)OC)O3)OC1C(=O)OC (stereo unspecified),75 to 77 °C
9,CCOC(=O)C(=[N+]=[N-])C(=O)c1cc(OC)ccc1C1CCc2cc(OC)ccc21 (stereo unspecified),97 to 99 °C
10,C=C1C(=O)c2ccccc2OC1(c1ccccc1)c1ccccc1,165 to 167 °C
11,CC(C)(C)OCc1cc(C(C)(C)C)cc(COC(C)(C)C)c1SSc1c(COC(C)(C)C)cc(C(C)(C)C)cc1COC(C)(C)C,120 to 121 °C
12,OC1CSC(Oc2cc(-c3cccnc3F)ccc2Cl)C(O)C1O (stereo unspecified),165 °C
13,O=C1NC(=O)C(Nc2ccc(CCNCC(O)COc3ccc(-c4ccccc4)cc3)cc2)S1 (stereo unspecified),70 to 71 °C
14,CC(C)(C)NS(=O)(=O)c1cc(C(=O)Cl)ccc1Cl,97 °C
15,COc1ccc([C@@H](CO)[C@H]2CCCCN2C(=O)OC(C)(C)C)cc1,115 to 117 °C
16,Cc1cc(C)n(-c2ccc(NN)nn2)n1,142 to 143 °C
17,CCCCCCC(CCCn1c(CCC)nc2c(N)nc3ccccc3c21)=NO,113 to 115 °C
18,Cc1ccccc1NC(=O)CN1CC2CCC(C1)N2S(=O)(=O)c1ccccc1,169 to 170 °C
19,Cc1ccc2ccc(N3C(=O)c4ccccc4C3OC(=O)N3CCN(C)CC3)nc2n1 (stereo unspecified),190 °C
20,CCCCCCCCCCCCCCCCCCOc1cc(OCCCOc2ccccc2)cc(N(CC(=O)O)CC(=O)O)c1,99 to 102 °C

row,SMILES,melting point
1,CCCCOCC(CN1C(=O)NC(=O)C(CC)(c2ccccc2)C1=O)OC(N)=O (stereo unspecified),104 °C
2,Cc1nn(C(=O)NC2CCCCC2)c(=O)n1NC(C)C,92 °C
3,Cc1cccc(Cl)c1N1CCCN(C)C1=S,164 to 165 °C
4,Oc1ccc([C@H]2CC[C@H](NCC#Cc3ccccc3)CC2)cc1,131 to 136 °C
5,CCCc1c(O)c(C(C)=O)cc2c(=O)cc(C(=O)OC)n(CC)c12,121 to 123 °C
6,CCOc1cc2c(=O)cc(C(=O)O)n(CC)c2ccc1=O,227 to 228 °C
7,CC(C)(C)c1cc(SCN2CCN(CSc3cc(C(C)(C)C)c(O)c(C(C)(C)C)c3)C2=O)cc(C(C)(C)C)c1O,173 to 176 °C
8,CCN(CC)CC1CCCCN1CCNC(=O)N1c2ccc(Br)cc2C(=O)Nc2cccnc21 (stereo unspecified),117 to 119 °C
9,CC(C)(CO)CCCCCCC(O)CCCCCCC(C)(C)CO,75 to 77 °C
10,Cc1cccc(CNc2ncccc2[N+](=O)[O-])n1,132 °C
11,CCCc1c(OCCCCCOc2cc3c(cc2C(C)=O)CC[C@@H](C(=O)O)O3)ccc(C(C)=O)c1O,94 to 97.5 °C
12,CC(Cl)(Cl)C(NC(=O)c1cc(Cl)cc(Cl)c1)NC(=NC#N)Nc1ccc(Cl)nc1 (stereo unspecified),138 to 140 °C
13,NC(=O)c1cccc(-c2cccc(O)c2)c1,148 to 151 °C
14,CCCNC(=O)C1(CCCCSc2nc3ccc(OCC)cc3s2)c2ccccc2-c2ccccc21,112 to 114 °C
15,COc1oc(=O)n(-c2ccccc2)c1C,81 to 83.5 °C
16,S=C=Nc1ccc(Sc2nc3ccccc3s2)cc1,84.5 to 86 °C
17,CC1=C(/C=C/S(=O)(=O)NC(C)C)[C@H](c2cccc([N+](=O)[O-])c2)C(C(=O)O[C@H](C)c2ccccc2)=C(C)N1,198 to 201 °C
18,OCC1C=CC(n2c(Br)nc3cc(Cl)c(Cl)cc32)C1 (stereo unspecified),126 to 128 °C
